Data: patent US6543181B1, “Fruit fly attractant compositions” (Iowa State University Research Foundation, Inc., priority 2001, dated 2003)

What was measured:
[1] = system: Drosophila melanogaster antennae; design: key to the marks not given beside the values
[2] = system: Drosophila melanogaster adult fruit flies; test: Attraction-trapant behavioral bioassay (cup traps in screen cages); type: in vivo; details: for Catches per day (mean ± S.E.): 100-150 flies released
Description: Three different sizes of screen cages (w×h×l: 26 cm×26 cm×30 cm; 48×61×61; and 88×36×46) were used for the trapping experiments. Trapping experiments were carried out either in the laboratories, or in nearby green houses.
The attraction-trapant assay traps were constructed from cylindrical, clear plastic jelly cups (4.0 cm I.D. at top, 3.0 cm I.D. bottom; 2.5 cm high) with a tightly fitting paper lid. The lids were pre-drilled with a hole having a diameter of about 2 mm, which was the only aperture through which volatiles from candidate attractants could emanate, and also the only entrance through which attracted flies could enter the trap chamber. In all experiments, a 1-cm-long, 0.5-cm-diameter piece of cotton dental wick was used as the substrate onto which different compositions of potential attractants were loaded for testing, and then the wick was placed in the bottom of the cup and the lid then sealed in position at the beginning of testing.
Traps containing a series of compositions to be compared were tested in a randomized, complete-block design, with one replicate of a treatment series deployed per cage. The traps were placed in an array with usually approximately 15 cm between traps. If three treatments were to be compared (including control), the array took the form of a triangle. If there were four treatments, then the four trap-cups formed a square.
No glue or toxicant was used inside the traps, and captures depended on the ability of the attractant-trapant composition to both attract the fruit flies as well as retain them in the chamber by keeping them from wandering back to the entrance hole on the lid and exiting through it. During these assays, observations of the fruit flies' behavior were often made, and they could routinely be observed flying slowly around the cage before descending to one of the traps on the floor of the cage, landing on it, and then walking more or less directly to the hole on the lid and entering the trap.
[…] […] During this period the trap positions were rotated at several hour intervals in order to minimize any possible trap position effects.

[3] = Table 3, 10 mg in cup trap, traps checked daily for 5 days
[4] = Table 4, ratios of acetic acid and 2-phenylethanol, total lure 10 mg, no water added, checked daily for 5 days

Structure (SMILES) | Catches per day (mean ± S.E.) [2, 3] | other results
C=CCc1ccc(OC)c(OC)c1 [1,2-dimethoxy-4-(2-propenyl)-benzene] |  | EAG activity [1]: +++
OCCc1ccccc1 [2-phenylethanol] | 3.15 ± 1.63 | Catches per day (mean ± S.E.) ([2]; Table 3, 1 mg in cup trap, traps checked daily for 5 days): 0.5 ± 0.29; Catches per day (mean ± S.E.) ([2]; Table 3, 5 mg in cup trap, traps checked daily for 5 days): 1.25 ± 0.63; Catches per day (mean ± S.E.) [2, 4]: 0 ± 0
CC(=O)OCCc1ccccc1 [2-phenylethyl acetate] | 1.87 ± 0.81 | 
CC(=O)O [Acetic acid] |  | Catches per day (mean ± S.E.) [2, 4]: 3.0 ± 1.08; Trap catches ([2]; Table 13, effect of ethyl acetate, 8 replicates): 0.25 ± 0.16
CCOC(=O)C=Cc1ccccc1 [Ethyl cinnamate] | 0.75 ± 0.49 | 
CCCCOC(C)=O [butyl acetate] |  | EAG activity [1]: +++
CCOC(=O)c1ccccc1 [ethyl benzoate] | 0.25 ± 0.16 | 
CCOC(=O)c1ccccc1O [ethyl salicylate] | 0.37 ± 0.18 | 
CCOC(=O)Cc1ccccc1 [ethylphenyl acetate] | 1.5 ± 0.5 | 
CC(=O)OCc1ccccc1 [phenylmethyl acetate] | 0.5 ± 0.27 | 
